The values below come from article PMC8159961, “Exploring protein hotspots by optimized fragment pharmacophores” (Nature Communications, 2021).

Experiment [1] addresses T1, human 5-HT6 receptor (Homo sapiens, UniProt P50406).
T1 construct: expressed in transfected cells
Put plainly: GPCR radioligand binding assay, [3H]-LSD displacement, HEK293 membranes. Conditions: for experimental hit status, 5-HT6: 1 = hit, 0 = no hit, tested at 10 µM, hit = 50% or stronger inhibition.

Experiment [2] deals with T2, bovine factor Xa (Bos taurus, UniProt P00743).
T2 construct: bovine factor Xa, Chromogenix, 2 nkat/mL; purchased Chromogenix
Put plainly: Protease inhibitory assay, chromogenic substrate S-2222. Type of experiment: biochemical. Conditions: for experimental hit status, Factor Xa: 1 = hit, 0 = no hit, screening at 200 µM.

Experiment [3] deals with T3, human 5-HT1A receptor (Homo sapiens, UniProt P08908).
T3 construct: expressed in transfected cells
T3 sequence (P08908 1-422): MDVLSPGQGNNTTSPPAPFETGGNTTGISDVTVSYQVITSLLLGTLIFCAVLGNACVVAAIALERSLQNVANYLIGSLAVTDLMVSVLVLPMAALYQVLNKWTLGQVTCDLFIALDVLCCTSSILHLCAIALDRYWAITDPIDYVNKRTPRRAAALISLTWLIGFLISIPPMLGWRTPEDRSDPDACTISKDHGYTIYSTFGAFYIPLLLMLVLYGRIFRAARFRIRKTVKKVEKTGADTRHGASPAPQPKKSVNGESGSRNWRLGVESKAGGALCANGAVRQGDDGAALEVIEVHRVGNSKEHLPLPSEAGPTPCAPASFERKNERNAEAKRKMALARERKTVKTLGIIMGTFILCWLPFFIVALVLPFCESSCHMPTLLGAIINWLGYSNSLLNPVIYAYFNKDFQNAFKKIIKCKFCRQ
Put plainly: GPCR radioligand binding assay, [3H]-8-OH-DPAT displacement, HEK293 membranes. Conditions: for experimental hit status, 5-HT1: 1 = hit, 0 = no hit, tested at 10 µM, hit = 50% or stronger inhibition.

The target in experiment [4] is T4, human 5-HT7b receptor (Homo sapiens, UniProt P34969).
T4 construct: expressed in transfected cells
Briefly: GPCR radioligand binding assay, [3H]-5-CT displacement, HEK293 membranes. Conditions: for experimental hit status, 5-HT7: 1 = hit, 0 = no hit, tested at 10 µM, hit = 50% or stronger inhibition.

Experiment [5] has as its target T5, recombinant SETD2 (Homo sapiens, UniProt Q9BYW2).
T5 construct: purchased BPS Bioscience 52060
T5 sequence (Q9BYW2 1418-1714 limits assumed): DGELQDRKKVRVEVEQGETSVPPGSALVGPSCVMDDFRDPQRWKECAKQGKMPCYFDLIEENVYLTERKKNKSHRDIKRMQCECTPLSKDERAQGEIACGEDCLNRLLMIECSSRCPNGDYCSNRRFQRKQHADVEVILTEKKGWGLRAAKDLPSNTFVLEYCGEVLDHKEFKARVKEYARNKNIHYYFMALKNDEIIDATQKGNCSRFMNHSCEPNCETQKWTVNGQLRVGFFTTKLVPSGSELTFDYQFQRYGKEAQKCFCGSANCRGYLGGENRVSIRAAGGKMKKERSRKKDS
Put plainly: SETD2 Chemiluminescence assay (H3K36 tri-methylation). The class given is biochemical. The following applies: 1 = hit, 0 = no hit.

Experiment [6] has as its target T6, human thrombin (Homo sapiens, UniProt P00734).
T6 construct: human thrombin; purchased Sigma-Aldrich
Briefly: Protease inhibitory assay, chromogenic substrate S-2238. The class given is biochemical. The following applies: for experimental hit status, Thrombin: 1 = hit, 0 = no hit, screening at 200 µM.

The mark [7] stands for this setting: 10 µM, read-out: 5-HT6 % Inhibition by plate position.
Where [8] appears, read: 5-HT6, average of exp_1 and exp_2, read-out: %inh 5-HT6 average.
Where [9] appears, read: 5-HT6, average, values below 0 and above 100% were set as 0 and 100, read-out: %inh 5-HT6 corrected*.
Where [10] appears, read: 5-HT6, replicate exp_1, read-out: %inh 5-HT6 exp_1.
[11] abbreviates: 5-HT6, replicate exp_2, read-out: %inh 5-HT6 exp_2.
Where [12] appears, read: 10 µM, read-out: 5-HT1A % Inhibition by plate position.
Where [13] appears, read: 5-HT1A, average of exp_1 and exp_2, read-out: %inh 5-HT1A average.
[14] abbreviates: 5-HT1A, average, values below 0 and above 100% were set as 0 and 100, read-out: %inh 5-HT1A corrected*.
[15] abbreviates: 5-HT1A, replicate exp_1, read-out: %inh 5-HT1A exp_1.
Where [16] appears, read: 5-HT1A, replicate exp_2, read-out: %inh 5-HT1A exp_2.
[17] abbreviates: 10 µM, read-out: 5-HT7 % Inhibition by plate position.
[18] abbreviates: 5-HT7, average of exp_1 and exp_2, read-out: %inh 5-HT7 average.
Where [19] appears, read: 5-HT7, average, values below 0 and above 100% were set as 0 and 100, read-out: %inh 5-HT7 corrected*.
The mark [20] stands for this setting: 5-HT7, replicate exp_1, read-out: %inh 5-HT7 exp_1.
Where [21] appears, read: 5-HT7, replicate exp_2, read-out: %inh 5-HT7 exp_2.

Where two headings read alike, the source gives them in different places.

T1 sequence (P50406 whole entry): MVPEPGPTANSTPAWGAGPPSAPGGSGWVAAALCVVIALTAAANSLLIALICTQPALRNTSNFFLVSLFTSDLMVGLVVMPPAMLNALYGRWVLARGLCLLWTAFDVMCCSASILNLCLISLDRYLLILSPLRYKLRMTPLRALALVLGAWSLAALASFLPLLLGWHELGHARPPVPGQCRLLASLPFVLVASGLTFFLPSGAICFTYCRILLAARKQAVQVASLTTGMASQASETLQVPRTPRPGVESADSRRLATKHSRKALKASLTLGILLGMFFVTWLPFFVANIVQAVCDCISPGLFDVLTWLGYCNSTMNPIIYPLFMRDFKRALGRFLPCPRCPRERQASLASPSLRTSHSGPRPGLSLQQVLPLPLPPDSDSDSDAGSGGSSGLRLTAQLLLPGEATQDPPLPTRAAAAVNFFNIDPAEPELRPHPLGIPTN
T4 sequence (P34969 1-432): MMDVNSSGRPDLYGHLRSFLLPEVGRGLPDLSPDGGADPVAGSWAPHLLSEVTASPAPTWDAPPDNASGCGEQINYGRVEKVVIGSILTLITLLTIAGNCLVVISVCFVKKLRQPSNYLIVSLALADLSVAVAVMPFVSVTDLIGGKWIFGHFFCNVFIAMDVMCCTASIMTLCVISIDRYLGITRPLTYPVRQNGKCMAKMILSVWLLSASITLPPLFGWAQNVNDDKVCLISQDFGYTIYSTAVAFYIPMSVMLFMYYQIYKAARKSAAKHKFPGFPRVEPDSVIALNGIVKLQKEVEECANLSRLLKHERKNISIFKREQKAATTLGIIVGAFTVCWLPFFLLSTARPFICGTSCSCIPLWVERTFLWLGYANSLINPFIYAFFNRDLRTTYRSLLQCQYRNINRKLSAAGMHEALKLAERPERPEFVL
T2 sequence (P00743 234-492 limits assumed): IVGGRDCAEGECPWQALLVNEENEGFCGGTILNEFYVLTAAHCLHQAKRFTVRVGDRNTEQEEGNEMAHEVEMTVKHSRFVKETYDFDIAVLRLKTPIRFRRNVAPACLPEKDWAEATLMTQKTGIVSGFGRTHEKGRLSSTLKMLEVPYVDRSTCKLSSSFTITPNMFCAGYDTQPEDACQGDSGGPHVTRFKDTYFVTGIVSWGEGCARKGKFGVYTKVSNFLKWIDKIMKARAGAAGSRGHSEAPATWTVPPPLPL
T2 sequence (P00743 41-180 partner limits assumed): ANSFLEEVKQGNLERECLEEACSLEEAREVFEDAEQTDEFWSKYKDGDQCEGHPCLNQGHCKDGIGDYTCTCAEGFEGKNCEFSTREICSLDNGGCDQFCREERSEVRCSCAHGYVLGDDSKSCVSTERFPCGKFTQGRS

On to `Cc1cc2ccccc2nc1N` [SX001], for which the inhibition at 10 µM in experiment [1] (setting [7]) was 33%; in experiment [1] (setting [8]) it was 33%; in experiment [1] (setting [9]) it was 33%; in experiment [1] (setting [10]), 29%; in experiment [1] (setting [11]), 37%; in experiment [3] (setting [12]), 0%. Also, the inhibition at 10 µM in experiment [3] (setting [13]) was -13%; in experiment [3] (setting [14]), 0%; in experiment [3] (setting [15]), -0.697%; in experiment [3] (setting [16]), -25%; in experiment [4] (setting [17]), 1.66%; in experiment [4] (setting [18]) it was 1.66%. Further, the inhibition at 10 µM is 1.66% in experiment [4] (setting [19]), 7% in experiment [4] (setting [20]) and -3.75% in experiment [4] (setting [21]). Besides, the “experimental hit status, 5-HT6” value in experiment [1] is given as 0. The Ki (in general, the equilibrium dissociation constant of an inhibitor or competing ligand from its target) in experiment [2] came to 149 µM. For the same compound, in experiment [2], the “experimental hit status, Factor Xa” value is on record as 1. Further, in experiment [3], the “experimental hit status, 5-HT1” value was 0. For the same compound, the “experimental hit status, 5-HT7” value in experiment [4] is 0. Also, the “experimental hit status, SETD2” value in experiment [5] was found to be 0. The “experimental hit status, Thrombin” value in experiment [6] worked out at 0.

For the compound `c1cnc2cccnc2c1` [SX002], the inhibition at 10 µM in experiment [1] (setting [7]) is 24%; in experiment [1] (setting [8]), 24%; in experiment [1] (setting [9]), 24%; in experiment [1] (setting [10]) it was 27%; in experiment [1] (setting [11]), 21%; in experiment [3] (setting [12]), 0%. Besides, the inhibition at 10 µM in experiment [3] (setting [13]) was -0.719%; in experiment [3] (setting [14]) it was 0%; in experiment [3] (setting [15]), -9%; in experiment [3] (setting [16]) it was 8%; in experiment [4] (setting [17]), 35%; in experiment [4] (setting [18]), 35%. Further, the inhibition at 10 µM stood at 35% in experiment [4] (setting [19]), 39% in experiment [4] (setting [20]) and 31% in experiment [4] (setting [21]). Further, the “experimental hit status, 5-HT6” value in experiment [1] amounted to 0. Also, the “experimental hit status, Factor Xa” value in experiment [2] stood at 0. Moreover, the “experimental hit status, 5-HT1” value in experiment [3] worked out at 0. In experiment [4], the “experimental hit status, 5-HT7” value turned out to be 0. For the same compound, in experiment [5], the “experimental hit status, SETD2” value is reported as 0. In experiment [6], the “experimental hit status, Thrombin” value came out at 1. In experiment [6] (plate layout, label = plate position, Cheng-Prusoff, Km 2.6 µM, read-out: Thrombin Ki), the inhibitory constant (Ki) is 163 µM.
